pEC50: −log10 of the molar value.

For this experiment, the system named is C666-1 cells. Briefly: C666-1 Cell Viability Assay (Resazurin cytotoxicity test). The experiment is classed as cell-based. Conditions: Homo sapiens, C6661, EB virus-positive C666-1 cells, 72 hours treatment, 100-0.78 micromole/L, read-out: Inhibitory Rate. Here is the method:
In order to evaluate the inhibitory effect of the small molecular compound of the present disclosure on EBNA1 at the cellular level, a cytotoxicity test was performed.
As mentioned in the Background of the present disclosure, nasopharyngeal carcinoma is a kind of disease highly associated with latent infection of EB virus. EB virus in latent state only expresses limited proteins to maintain its genome replication, among which EBNA1 protein is an essential functional protein. Studies have confirmed that inhibition of EBNA1 can reduce the proliferation of the corresponding nasopharyngeal carcinoma cells or kill them. Therefore, EB virus-positive nasopharyngeal carcinoma tumor cells (C666-1 cells) are selected for test to verify the effect of the small molecular compound of the present disclosure.
During testing, 100 microliters of different cell lines were inoculated onto a transparent 96-well plate, and 5×10^3 cells were inoculated in each well for C666-1 cells. After the cells were cultured in an incubator under […] at 37° C. for 24 hours, 10 microliters of compound with a concentration ranging from 1 mmol/L to 7.8 micromol/L were added to each well (8 points, double dilution, the final concentration was 100-0.78 micromole/L), and treated in the incubator under carbon dioxide at 37° C. for 72 hours. Cell viability was assessed using the redox indicator Resazurin. After addition of 10 microliters of 600 micromole/liter Resazurin to each well and incubation at 37° C. for 3 hours. Using a Tecan microplate reader, the fluorescence signals were detected at an […]. A software was used to fit the inhibition curve and calculate half-maximal effect concentration (EC50). The selectivity of compound activity was assessed by comparing the EC50 values of EB virus-positive and EB virus-negative cell lines.
In general terms: The colour change of resazurin is a common sign of viable cells or microbes.
`COC(=O)c1cccc(N2CC(Oc3ccc(COc4cccnc4)cc3)C2)c1-n1cccc1` [Example 1, methyl 3-(3-(4-((pyridin-3-yloxy)methyl)phenoxy)azetidin-1-yl)-2-(1H-pyrrol-1-yl) benzoate]: the pEC50 was 5.00 to 6.00. Turning to `O=C(O)c1cccc(N2CC(Oc3ccc(COc4cccnc4)cc3)C2)c1-n1cccc1` [Example 1a, 3-(3-(4-((pyridin-3-yloxy)methyl)phenoxy)azetidin-1-yl)-2-(1H-pyrrol-1-yl) benzoic acid], the pEC50 was 5.00 to 6.00. To `CCOC(=O)c1cccc(N2CC(Oc3ccc(COc4cccnc4)cc3)C2)c1-n1cccc1` [Example 1b, ethyl 3-(3-(4-((pyridin-3-yloxy)methyl)phenoxy)azetidin-1-yl)-2-(1H-pyrrol-1-yl) benzoate] belongs > 6.00. The same measure for `O=C(NO)c1cccc(N2CC(Oc3ccc(COc4cccnc4)cc3)C2)c1-n1cccc1` [Example 1c, N-hydroxy-3-(3-(4-((pyridin-3-yloxy)methyl)phenoxy)azetidin-1-yl)-2-(1H-pyrrole-1-yl) benzamide]: > 6.00; for `CNC(=O)c1cccc(N2CC(Oc3ccc(COc4cccnc4)cc3)C2)c1-n1cccc1` [Example 1d, N-methyl-3-(3-(4-((pyridin-3-yloxy)methyl)phenoxy)azetidin-1-yl)-2-(1H-pyrrol-1-yl) benzamide]: > 6.00. In the case of `CN(C)C(=O)c1cccc(N2CC(Oc3ccc(COc4cccnc4)cc3)C2)c1-n1cccc1` [Example 1e, N,N-dimethyl-3-(3-(4-((pyridin-3-yloxy)methyl)phenoxy)azetidin-1-yl)-2-(1H-pyrrol-1-yl) benzamide], the pEC50 is 5.00 to 6.00.

For the molecule `O=C(c1cccc(N2CC(Oc3ccc(COc4cccnc4)cc3)C2)c1-n1cccc1)N1CCCC1` [Example 1f, (3-(3-(4-((pyridin-3-yloxy)methyl)phenoxy)azetidin-1-yl)-2-(1H-pyrrol-1-yl)phenyl)(pyrrolidin-1-yl) methanone], the pEC50 was 5.00 to 6.00. Consider `c1cncc(OCc2ccc(OC3CN(c4ccccc4-n4cccc4)C3)cc2)c1` [Example 1g, 3-((4-((1-(2-(1H-pyrrole-1-yl)phenyl)azetidin-3-yl)oxy)benzyl)oxy) pyridine], for which the pEC50 is 4.30 to 5.00.

For the molecule `COC(=O)c1cccc(N2CC(Oc3ccc(COc4cnccc4C)cc3)C2)c1-n1cccc1` [Example 2, methyl 3-(3-(4-((4-methylpyridin-3-yloxy)methyl)phenoxy)azetidin-1-yl)-2-(1H-pyrrol-1-yl) benzoate], the pEC50 is < 4.30. The same measure for `Cc1ccncc1OCc1ccc(OC2CN(c3cccc(C(=O)O)c3-n3cccc3)C2)cc1` [Example 2a, 3-(3-(4-((4-methylpyridin-3-yloxy)methyl)phenoxy)azetidin-1-yl)-2-(1H-pyrrol-1-yl) benzoic acid]: < 4.30; for `COC(=O)c1cccc(N2CC(Oc3ccc(COc4cncc(C)c4)cc3)C2)c1-n1cccc1` [Example 3, methyl 3-(3-(4-((5-methylpyridin-3-yloxy)methyl)phenoxy)azetidin-1-yl)-2-(1H-pyrrol-1-yl) benzoate]: < 4.30; for `Cc1cncc(OCc2ccc(OC3CN(c4cccc(C(=O)O)c4-n4cccc4)C3)cc2)c1` [Example 3a, 3-(3-(4-((5-methylpyridin-3-yloxy)methyl)phenoxy)azetidin-1-yl)-2-(1H-pyrrol-1-yl) benzoic acid]: < 4.30.

On to `COC(=O)c1cccc(N2CC(Oc3ccc(COc4ccc(OC)nc4)cc3)C2)c1-n1cccc1` [Example 4, methyl 3-(3-(4-(((6-methoxypyridin-3-yl)oxy)methyl)phenoxy)azetidin-1-yl)-2-(1H-pyrrol-1-yl) benzoate], for which the pEC50 is < 4.30. Take `COc1ccc(OCc2ccc(OC3CN(c4cccc(C(=O)O)c4-n4cccc4)C3)cc2)cn1` [Example 4a, 3-(3-(4-(((6-methoxypyridin-3-yl)oxy)methyl)phenoxy)azetidin-1-yl)-2-(1H-pyrrol-1-yl) benzoic acid]: the pEC50 is < 4.30. To `COC(=O)c1cccc(N2CC(Oc3ccc(COc4ccc(C)nc4)cc3)C2)c1-n1cccc1` [Example 5, methyl 3-(3-(4-((6-methylpyridin-3-yloxy)methyl)phenoxy)azetidin-1-yl)-2-(1H-pyrrol-1-yl) benzoate] belongs < 4.30; to `Cc1ccc(OCc2ccc(OC3CN(c4cccc(C(=O)O)c4-n4cccc4)C3)cc2)cn1` [Example 5a, 3-(3-(4-((6-methylpyridin-3-yloxy)methyl)phenoxy)azetidin-1-yl)-2-(1H-pyrrol-1-yl) benzoic acid], < 4.30.

For the molecule `COC(=O)c1cccc(N2CC(Oc3ccc(COc4cncc(OC)c4)cc3)C2)c1-n1cccc1` [Example 6, methyl 3-(3-(4-(((5-methoxypyridin-3-yl)oxy)methyl)phenoxy)azetidin-1-yl)-2-(1H-pyrrol-1-yl) benzoate], the pEC50 was < 4.30. To `COc1cncc(OCc2ccc(OC3CN(c4cccc(C(=O)O)c4-n4cccc4)C3)cc2)c1` [Example 6a, 3-(3-(4-(((5-methoxypyridin-3-yl)oxy)methyl)phenoxy)azetidin-1-yl)-2-(1H-pyrrol-1-yl) benzoic acid] belongs < 4.30; to `COC(=O)c1cccc(N2CC(Oc3ccc(N(C)C(=O)Nc4cccc(C#N)c4)cc3)C2)c1-n1cccc1` [Example 7, methyl 3-(3-(4-(3-(3-cyanophenyl)-1-methylureido)phenoxy)azetidin-1-yl)-2-(1H-pyrrol-1-yl) benzoate], 4.30 to 5.00.

On to `CN(C(=O)Nc1cccc(C#N)c1)c1ccc(OC2CN(c3cccc(C(=O)O)c3-n3cccc3)C2)cc1` [Example 7a, 3-(3-(4-(3-(3-cyanophenyl)-1 - methylureido)phenoxy)azetidin-1-yl)-2-(1H-pyrrol-1-yl) benzoic acid], for which the pEC50 was 4.30 to 5.00. To `COC(=O)c1cccc(N2CC(Oc3ccc(COc4ccncc4)cc3)C2)c1-n1cccc1` [Example 8, methyl 3-(3-(4-((pyridin-4-yloxy)methyl)phenoxy)azetidin-1-yl)-2-(1H-pyrrol-1-yl) benzoate] belongs 4.30 to 5.00. The same measure for `O=C(O)c1cccc(N2CC(Oc3ccc(COc4ccncc4)cc3)C2)c1-n1cccc1` [Example 8a, 3-(3-(4-((pyridin-4-yloxy)methyl)phenoxy)azetidin-1-yl)-2-(1H-pyrrol-1-yl) benzoic acid]: < 4.30; for `COC(=O)c1cccc(N2CC(Oc3ccc(COc4cnc5ccccc5c4)cc3)C2)c1-n1cccc1` [Example 9, methyl 2-(1H-pyrrol-1-yl)-3-(3-(4-((quinolin-3-yloxy)methyl)phenoxy)azetidin-1-yl) benzoate]: < 4.30. The same measure for `O=C(O)c1cccc(N2CC(Oc3ccc(COc4cnc5ccccc5c4)cc3)C2)c1-n1cccc1` [Example 9a, 2-(1H-pyrrol-1-yl)-3-(3-(4-((quinolin-3-yloxy)methyl)phenoxy)azetidin-1-yl) benzoic acid]: < 4.30; for `COC(=O)c1cccc(N2CC(Oc3ccc(NC(=O)Nc4cccc(C(F)(F)F)c4)cc3)C2)c1-n1cccc1` [Example 10, methyl 2-(1H-pyrrol-1-yl)-3-(3-(4-(3-(3-(trifluoromethyl)phenyl)ureido)phenoxy)azetidin-1-yl) benzoate]: 4.30 to 5.00. `O=C(Nc1ccc(OC2CN(c3cccc(C(=O)O)c3-n3cccc3)C2)cc1)Nc1cccc(C(F)(F)F)c1` [Example 10a, 2-(1H-pyrol-1-yl)-3-(3-(4-(3-(3-(trifluoromethyl)phenyl)ureido)phenoxy)azetidin-1-yl) benzoic acid]: the pEC50 was 4.30 to 5.00. To `O=C(Nc1ccc(OC2CN(c3cccc(C(=O)NO)c3-n3cccc3)C2)cc1)Nc1cccc(C(F)(F)F)c1` [Example 10b, N-hydroxy-2-(1H-pyrrol-1-yl)-3-(3-(4-(3-(3-(trifluoromethyl)phenyl)ureido)phenoxy)azetidin-1-yl) benzamide] belongs 5.00 to 6.00; to `COC(=O)c1cccc(N2CC(Oc3ccc(COc4ncccn4)cc3)C2)c1-n1cccc1` [Example 11, methyl 3-(3-(4-((pyrimidin-2-yloxy)methyl)phenoxy)azetidin-1-yl)-2-(1H-pyrrol-1-yl) benzoate], < 4.30. The same measure for `O=C(O)c1cccc(N2CC(Oc3ccc(COc4ncccn4)cc3)C2)c1-n1cccc1` [Example 11a, 3-(3-(4-((pyrimidin-2-yloxy)methyl)phenoxy)azetidin-1-yl)-2-(1H-pyrrol-1-yl) benzoic acid]: < 4.30. As to `COC(=O)c1cccc(N2CC(Oc3ccc(COc4ccccn4)cc3)C2)c1-n1cccc1` [Example 12, methyl 3-(3-(4-((pyridin-2-yloxy)methyl)phenoxy)azetidin-1-yl)-2-(1H-pyrrol-1-yl) benzoate], the pEC50 is < 4.30. On to `O=C(O)c1cccc(N2CC(Oc3ccc(COc4ccccn4)cc3)C2)c1-n1cccc1` [Example 12a, 3-(3-(4-((pyridin-2-yloxy)methyl)phenoxy)azetidin-1-yl)-2-(1H-pyrrol-1-yl) benzoic acid], for which the pEC50 is < 4.30.

(Values after patent US20240308987A1, “SMALL MOLECULE INHIBITOR AGAINST NASOPHARYNGEAL CARCINOMA, PREPARATION METHOD AND APPLICATION THEREOF” (SHENZHEN BAY LABORATORY, priority 2021, published 2024).)
